Data reported in patent US20260337191A1, “CRYSTAL FORM OF EMRACLIDINE, PREPARATION METHOD THEREFOR, AND USE THEREOF” (Cerevel Therapeutics, LLC, priority 2022, published 2026).

Legend:
[1] = Phase-Ib clinical result, Cerevel Therapeutics; cited from earlier work
[2] = Storage stability of crystal form drug substance (HPLC purity and XRPD); assay type: physicochemical
Description: The X-ray powder diffraction pattern described in the invention is collected by a Bruker X-ray powder diffractometer. The parameters for the X-ray powder diffraction method according to the invention are as follows: • X-ray light source: Cu, Kα, • Kα1 (Å): 1.54060; Kα2 (Å): 1.54439, • Kα2/Kα1 intensity ratio: 0.50.
An appropriate amount of a crystal-form-CSI sample was packaged under corresponding packaging conditions and stored at 40° C./75% RH for a certain period of time, the purity and crystal form were determined by HPLC and XRPD, and the results are shown in Table 7.
Open: a sample was placed in a glass vial without a lid and stored in corresponding environment while the vial was open.
An appropriate amount of a crystal-form-CSII sample was packaged under corresponding packaging conditions and stored for a certain period of time at 25° C./60% RH, 40° C./75% RH, and 60° C./75% RH, the purity and crystal form were determined by HPLC and XRPD, and the result is shown in Table 12.
Sealing: The sample was placed in a glass vial, which was covered by a lid and sealed in a double-layer PE bag, followed by an aluminum foil bag. […]
Sealed: The sample was placed in a glass vial, which was covered by a lid and sealed in a double-layer PE bag, followed by an aluminum foil bag. […]
An appropriate amount of a crystal-form-CSV sample was packaged under corresponding packaging conditions and stored for a certain period of time at 25° C./60% RH, 40° C./75% RH, and 60° C./75% RH, the purity and crystal form were determined by HPLC and XRPD, and the result is shown in Table 16.

[3] = Stability under mechanical force: ball milling, XRPD; assay type: physicochemical; details: 500 rpm, 5 minutes, XRPD before and after
Description: A crystal-form-CSII sample was ball-milled at a vibration speed of 500 rpm for 5 minutes using a ball mill, the sample before and after ball milling was tested by XRPD, the test result is shown in FIG. 17, and crystal form CSII is not changed after ball milling.
A crystal-form-CSIII sample was ball-milled at a vibration speed of 500 rpm for 5 minutes using a ball mill. The sample before and after ball milling was tested by XRPD, the test result is shown in FIG. 22, and crystal form CSIII is not changed after the ball milling.
A crystal-form-CSIV sample was ball-milled at a vibration speed of 500 rpm for 5 minutes using a ball mill, the sample before and after ball milling was tested by XRPD, the test result is shown in FIG. 25, and crystal form CSIV is not changed after ball milling.
A crystal-form-CSV sample was ball-milled at a vibration speed of 500 rpm for 5 minutes using a ball mill, the sample before and after ball milling was tested by XRPD, the test result is shown in FIG. 28, and crystal form CSV is not changed after ball milling.

[4] = Stability under mechanical force: tableting, XRPD; assay type: physicochemical; details: 15 KN, φ 6 mm round tooling, XRPD before and after
[5] = Hygroscopicity by dynamic vapor sorption (DVS); assay type: physicochemical; details: for weight increase due to hygroscopicity: 25° C.
Description: The dynamic vapor sorption (DVS) pattern for the experiment is collected by an Intrinsic dynamic vapor sorption instrument manufactured by Surface Measurement Systems Ltd. (SMS). Control software for the instrument is DVS-Intrinsic control software. The method parameters of the dynamic vapor sorption instrument are as follows: • temperature: 25° C., • carrier gas, and flow rate: N2, and 200 ml/min, • mass change per unit time: 0.002%/min, • relative humidity range: 0% RH-95% RH.
(§1) About 10 mg of a crystal-form-CSI sample was taken and tested for hygroscopicity using a dynamic vapor sorption (DVS) instrument, with a relative humidity cycle of 30%-90%-0%-90% RH, and a mass change for each humidity was recorded. The sample was tested by XRPD before and after DVS testing. […] The DVS pattern of crystal form CSI is shown in FIG. 13, and the weight increase of crystal form CSI due to hygroscopicity is 0.36% at 30%-80% RH.
as §1, with “crystal-form-CSII” for “crystal-form-CSI”, “0%-90%-0%” for “30%-90%-0%-90%”, “CSII” for “CSI”, “18,” for “13,”, “0.28%” for “0.36%”, “0%-80%” for “30%-80%”
as §1, with “crystal-form-CSIII” for “crystal-form-CSI”, “0%-90%-0%” for “30%-90%-0%-90%”, “CSIII” for “CSI”, “23,” for “13,”, “0.21%” for “0.36%”, “0%-80%” for “30%-80%”
as §1, with “crystal-form-CSIV” for “crystal-form-CSI”, “0%-90%-0%” for “30%-90%-0%-90%”, “CSIV” for “CSI”, “26,” for “13,”, “0.11%” for “0.36%”, “0%-80%” for “30%-80%”
as §1, with “crystal-form-CSV” for “crystal-form-CSI”, “a” for “a relative humidity”, “CSV” for “CSI”, “29,” for “13,”, “0.29%” for “0.36%”

[6] = Crystal form stability in formulation process, XRPD; assay type: physicochemical; details: formula Table 8, process Table 10, XRPD
Description: A crystal-form-CSI formulation was prepared by using the formulation formula shown in table 8 and the formulation process shown in table 10, and a formula for mixture of excipients is shown in table 9. A mixture of excipients and the sample before and after the formulation formulas were tested by XRPD, and the result is shown in FIG. 14.
(§2) A crystal-form-CSII formulation was prepared by using the formulation formula shown in Table 8 and the formulation process shown in Table 10, and an excipient formula is shown in Table 9. A mixture of excipients and the sample before and after the formulation formulas were tested by XRPD, and the result is shown in FIG. 19.
as §2, with “crystal-form-CSV” for “crystal-form-CSII”, “30.” for “19.”

[7] = Thermal gravimetric analysis (TGA); assay type: physicochemical; details: 10° C./min, N2
Description: The thermal gravimetric analysis (TGA) pattern as described in the invention is collected by TA Q500. The parameters for the thermal gravimetric analysis (TGA) method described in the invention are as follows: • scanning speed: 10° C./min, • protective gas: N2.

[8] = heated from room temperature to 180° C.

stable for at least ([2]; 40° C./75% RH)	Crystal Form ([2]; initial (before storage))	Purity ([2]; initial (before storage)) [%]	crystal form after ball milling [3]	crystal form after tableting [4]	weight increase due to hygroscopicity ([5]; 30%-80% RH) [%]	crystal form after DVS testing ([5]; 30%-90%-0%-90% RH cycle)	crystal form after formulation formula processes [6]	weight increase due to hygroscopicity ([5]; 0%-80% RH) [%]	crystal form after DVS testing ([5]; 0%-90%-0% RH cycle)	stable for at least ([2]; 25° C./60% RH)	Crystal Form ([2]; 25° C./60% RH, sealed, 6 month)	Purity ([2]; 25° C./60% RH, sealed, 6 month) [%]	Crystal Form ([2]; 40° C./75% RH, sealed, 6 month)	Purity ([2]; 40° C./75% RH, sealed, 6 month) [%]	stable for at least ([2]; 60° C./75% RH)	Crystal Form ([2]; 60° C./75% RH, sealed, 1 month)	TGA weight loss [7, 8]	SMILES	change in sample properties after humidity cycle ([5]; 0%-90%-0% RH cycle)	change in sample properties after humidity cycle ([5]; 30%-90%-0%-90% RH cycle)	further results
																		Cc1cc(C)c2c(n1)CN(C(=O)CC1CN(c3ccnc(C(F)(F)F)c3)C1)C2 [Emraclidine, 1-(2,4-dimethyl-5,7-dihydro-6H-pyrrolo[3,4-b]pyridin-6-yl)-2-{1-[2-(trifluoromethyl)pyridin-4-yl]azetidin-3-yl}ethanone]			antipsychotic activities compared to placebos [1]: clinically significant antipsychotic activities
at least 6 months	Form CSI	99.53	remains unchanged	remains unchanged	0.36	remains unchanged	not changed											Cc1cc(C)c2c(n1)CN(C(=O)CC1CN(c3ccnc(C(F)(F)F)c3)C1)C2 [Crystal Form CSI]	no significant change in sample properties	no significant change in sample properties	Crystal Form ([2]; 40° C./75% RH, open, 6 month): Form CSI; Purity ([2]; 40° C./75% RH, open, 6 month): 99.59%
at least 2 months	Form CSIII		not changed					0.21	not changed									Cc1cc(C)c2c(n1)CN(C(=O)CC1CN(c3ccnc(C(F)(F)F)c3)C1)C2 [Crystal Form CSIII]			Crystal Form ([2]; 40° C./75% RH, sealed, 2 month): Form CSIII; TGA weight loss ([7]; heated from room temperature to 170° C.): substantially no weight loss
at least 6 months	Form CSII	99.56	not changed	not changed			not changed	0.28	not changed	at least 6 months	Form CSII	99.60	Form CSII	99.57	at least 1 month	Form CSII	substantially no weight loss	Cc1cc(C)c2c(n1)CN(C(=O)CC1CN(c3ccnc(C(F)(F)F)c3)C1)C2 [Crystal Form CSII]	no significant change in sample properties		Purity ([2]; 60° C./75% RH, sealed, 1 month): 99.55%
at least 6 months	Form CSV	99.96	not changed	not changed	0.29	not changed	not changed			at least 6 months	Form CSV	99.96	Form CSV	99.96	at least 2 month			Cc1cc(C)c2c(n1)CN(C(=O)CC1CN(c3ccnc(C(F)(F)F)c3)C1)C2 [Crystal Form CSV]		no significant change in sample properties	Crystal Form ([2]; 60° C./75% RH, sealed, 2 month): Form CSV; Purity ([2]; 60° C./75% RH, sealed, 2 month): 99.95%; TGA weight loss ([7]; heated from 35° C. to 150° C.): 3.8%
at least 6 months	Form CSIV		not changed					0.11	not changed	at least 6 months	Form CSIV		Form CSIV		at least 1 month	Form CSIV	substantially no weight loss	Cc1cc(C)c2c(n1)CN(C(=O)CC1CN(c3ccnc(C(F)(F)F)c3)C1)C2 [Crystal Form CSIV]	no significant change in sample properties		
